Source: PubChem BioAssay AID256 (DTP/NCI, 2004)
Several values for one entry are separate records, joined by “and”; a condition that tells them apart may be missing. Equal values may be shown once. Toxic doses and inconclusive results are not listed. Rule for the calls: active = survival T/C of 150% or more; inactive = T/C below 125% in these data.

Test system: CD2F1 mice, L1210 leukemia ip, survival T/C
Test: NCI In Vivo Anticancer Drug Screen. Data for tumor model L1210 Leukemia (intraperitoneal) in CD2F1 (CDF1) mice
Conditions: higher = longer survival
Method in brief: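 Vehicle-treated tumor-bearing mice served as controls (C) for compound-treated mice (T). Reported figure is T divided by C.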

[1] = endpoint: mean survival time, dose: 100.0 mg/kg/injection, schedule: Q01DX009 (ip), vehicle: saline with Tween-80
[2] = endpoint: mean survival time, dose: 200.0 mg/kg/injection, schedule: Q01DX009 (ip), vehicle: saline with Tween-80
[3] = endpoint: mean survival time, dose: 400.0 mg/kg/injection, schedule: Q01DX009 (ip), vehicle: saline with Tween-80
[4] = endpoint: mean survival time, dose: 100.0 mg/kg/injection, schedule: Q04DX003 (ip), vehicle: saline with Tween-80
[5] = endpoint: mean survival time, dose: 200.0 mg/kg/injection, schedule: Q04DX003 (ip), vehicle: saline with Tween-80
[6] = endpoint: mean survival time, dose: 400.0 mg/kg/injection, schedule: Q04DX003 (ip), vehicle: saline with Tween-80
[7] = endpoint: mean survival time, dose: 100.0 mg/kg/injection, schedule: Q04DX002 (ip), vehicle: saline with Tween-80
[8] = endpoint: mean survival time, dose: 25.0 mg/kg/injection, schedule: Q01DX009 (ip), vehicle: saline
[9] = endpoint: mean survival time, dose: 50.0 mg/kg/injection, schedule: Q01DX009 (ip), vehicle: saline
[10] = endpoint: mean survival time, dose: 100.0 mg/kg/injection, schedule: Q01DX009 (ip), vehicle: saline
[11] = endpoint: mean survival time, dose: 50.0 mg/kg/injection, schedule: Q01DX001 (ip), vehicle: saline
[12] = endpoint: mean survival time, dose: 100.0 mg/kg/injection, schedule: Q01DX001 (ip), vehicle: saline
[13] = endpoint: mean survival time, dose: 200.0 mg/kg/injection, schedule: Q01DX001 (ip), vehicle: saline
[14] = endpoint: mean survival time, dose: 200.0 mg/kg/injection, schedule: Q01DX009 (ip), vehicle: saline
[15] = endpoint: mean survival time, dose: 400.0 mg/kg/injection, schedule: Q01DX001 (ip), vehicle: saline
[16] = endpoint: mean survival time, dose: 400.0 mg/kg/injection, schedule: Q01DX009 (ip), vehicle: saline
[17] = endpoint: mean survival time, dose: 100.0 mg/kg/injection, schedule: Q01DX001 (ip), vehicle: saline with Tween-80
[18] = endpoint: mean survival time, dose: 200.0 mg/kg/injection, schedule: Q01DX001 (ip), vehicle: saline with Tween-80
[19] = endpoint: mean survival time, dose: 400.0 mg/kg/injection, schedule: Q01DX001 (ip), vehicle: saline with Tween-80

Measured: T/C

CCOP(=O)(OCC)/C(C#N)=C\c1ccc(OC)c(OC)c1
inactive: [1] 98 % of control | [2] 94 % of control | [3] 100 % of control

O=CN(CCNc1ccccc1)c1ccccc1
inactive: [4] 96 % of control | [5] 101 % of control | [6] 95 % of control

COCCCNC1=C(C#N)C(=O)NC(c2cccc([N+](=O)[O-])c2)S1 (centres undefined)
inactive: endpoint: mean survival time, dose: 12.5 mg/kg/injection, schedule: Q01DX009 (ip), vehicle: saline with Tween-80 94 % of control | endpoint: mean survival time, dose: 25.0 mg/kg/injection, schedule: Q01DX009 (ip), vehicle: saline with Tween-80 96 % of control | endpoint: mean survival time, dose: 50.0 mg/kg/injection, schedule: Q01DX009 (ip), vehicle: saline with Tween-80 96 % of control | [1] 100 % of control | [2] 102 % of control | [3] 103 % of control

O=S(=O)([O-])O.O=S(O)S(=O)O.[Co+3].[NH2-].[NH2-].[NH2-].[NH2-].[NH2-]
inactive: [7] 97 % of control

O=C(OCCOC(=O)N1CCOCC1)N1CCOCC1
inactive: [7] 101 % of control | endpoint: mean survival time, dose: 200.0 mg/kg/injection, schedule: Q04DX002 (ip), vehicle: saline with Tween-80 97 % of control | endpoint: mean survival time, dose: 400.0 mg/kg/injection, schedule: Q04DX002 (ip), vehicle: saline with Tween-80 101 % of control

Cc1cc(OC(=O)Nc2cccc(Cl)c2Cl)ccc1Cl
inactive: endpoint: mean survival time, dose: 100.0 mg/kg/injection, schedule: Q01DX009 (ip), vehicle: other 101 % of control | endpoint: mean survival time, dose: 200.0 mg/kg/injection, schedule: Q01DX009 (ip), vehicle: other 103 % of control | endpoint: mean survival time, dose: 400.0 mg/kg/injection, schedule: Q01DX009 (ip), vehicle: other 106 % of control

NC1(CO)COC(c2ccccc2)OC1 (centres undefined)
inactive: [8] 93 % of control | [9] 96 % of control | [10] 96 % of control

O=C(C(Oc1ccc(Cl)cc1)Oc1ccc(Cl)cc1)N(O)c1ccccc1OCc1ccccc1
inactive: [4] 102 % of control | [5] 96 % of control | [6] 94 % of control

COc1ccccc1NC(=O)CSC(N)=O
inactive: [11] 98 % of control | [12] 97 % of control | [10] 102 % of control | endpoint: mean survival time, dose: 100.0 mg/kg/injection, schedule: Q04DX003 (ip), vehicle: saline 94 % of control | [13] 103 % of control | [14] 93 % of control | endpoint: mean survival time, dose: 200.0 mg/kg/injection, schedule: Q04DX003 (ip), vehicle: saline 91 % of control | [15] 97 % of control | [16] 96 % of control | endpoint: mean survival time, dose: 400.0 mg/kg/injection, schedule: Q04DX003 (ip), vehicle: saline 91 % of control

CC(Cl)(C(Cl)Cl)C(F)(F)F (centres undefined)
inactive: endpoint: mean survival time, dose: 25.0 mg/kg/injection, schedule: Q01DX001 (ip), vehicle: saline 102 % of control | [8] 98 % of control | [11] 107 % of control | [9] 98 % of control | [12] 104 % of control and 108 % of control | [10] 98 % of control

N#CC(/C=C/c1ccccc1)Nc1ccccc1N (centres undefined)
inactive: [1] 98 % of control | [2] 95 % of control | [3] 93 % of control

O=[N+]([O-])c1ccc(C[N+]23CCN(CC2)CC3)cc1
inactive: [17] 100 % of control | [18] 106 % of control

O=C(NCCO)c1cc2ccccc2o1
inactive: [17] 93 % of control | [18] 98 % of control | [19] 90 % of control

O.O.[Cl][Pt+2][Cl].[NH-]C1CCCCC1[NH-] (centres undefined)
inactive: endpoint: mean survival time, dose: 2.5 mg/kg/injection, schedule: Q04DX003 (ip), vehicle: dextrose 110 % of control | endpoint: mean survival time, dose: 5.0 mg/kg/injection, schedule: Q04DX003 (ip), vehicle: dextrose 113 % of control | endpoint: mean survival time, dose: 80.0 mg/kg/injection, schedule: Q04DX003 (ip), vehicle: dextrose 96 % of control | endpoint: median survival time, dose: 1.25 mg/kg/injection, schedule: Q04DX003 (ip), vehicle: saline 109 % of control | endpoint: median survival time, dose: 2.5 mg/kg/injection, schedule: Q04DX003 (ip), vehicle: saline 110 % of control | endpoint: median survival time, dose: 4.0 mg/kg/injection, schedule: Q04DX003 (ip), vehicle: saline 110 % of control [middle of 5 runs] | endpoint: median survival time, dose: 5.0 mg/kg/injection, schedule: Q04DX003 (ip), vehicle: saline 119 % of control | endpoint: median survival time, dose: 8.0 mg/kg/injection, schedule: Q04DX003 (ip), vehicle: saline 120 % of control | endpoint: median survival time, dose: 64.0 mg/kg/injection, schedule: Q04DX003 (ip), vehicle: saline 98 % of control and 120 % of control and 124 % of control

O=c1[nH]c(=O)n(C2CC(O)C(CO)O2)cc1/C=N/O (centres undefined)
inactive: endpoint: mean survival time, dose: 12.5 mg/kg/injection, schedule: Q01DX005 (ip), vehicle: distilled water + Tween-80 101 % of control | endpoint: mean survival time, dose: 25.0 mg/kg/injection, schedule: Q01DX005 (ip), vehicle: distilled water + Tween-80 103 % of control | endpoint: mean survival time, dose: 50.0 mg/kg/injection, schedule: Q01DX005 (ip), vehicle: distilled water + Tween-80 101 % of control | endpoint: mean survival time, dose: 100.0 mg/kg/injection, schedule: Q01DX005 (ip), vehicle: distilled water + Tween-80 98 % of control | endpoint: mean survival time, dose: 200.0 mg/kg/injection, schedule: Q01DX005 (ip), vehicle: distilled water + Tween-80 101 % of control

O=C(OC1CC2CCC1C2Cl)c1ccc2ccccc2c1 (centres undefined)
inactive: [17] 93 % of control | [1] 91 % of control | [18] 89 % of control | [2] 93 % of control | [19] 95 % of control | [3] 95 % of control

Cc1cn(C2OC(CO)C(O)C2O)c(=O)nc1N (centres undefined)
inactive: endpoint: median survival time, dose: 25.0 mg/kg/injection, schedule: Q01DX005 (ip), vehicle: water 96 % of control | endpoint: median survival time, dose: 50.0 mg/kg/injection, schedule: Q01DX005 (ip), vehicle: water 104 % of control | endpoint: median survival time, dose: 100.0 mg/kg/injection, schedule: Q01DX005 (ip), vehicle: water 104 % of control | endpoint: median survival time, dose: 200.0 mg/kg/injection, schedule: Q01DX005 (ip), vehicle: water 104 % of control

CCCC(=O)c1cc(O)ccc1O
inactive: [12] 101 % of control | [13] 96 % of control | [15] 104 % of control

CC(=O)Nc1ccc(-c2c(N)ncc3ccccc23)cc1
inactive: endpoint: mean survival time, dose: 50.0 mg/kg/injection, schedule: Q04DX003 (ip), vehicle: other 94 % of control | endpoint: mean survival time, dose: 100.0 mg/kg/injection, schedule: Q04DX003 (ip), vehicle: other 94 % of control | endpoint: mean survival time, dose: 200.0 mg/kg/injection, schedule: Q04DX003 (ip), vehicle: other 96 % of control | endpoint: mean survival time, dose: 400.0 mg/kg/injection, schedule: Q04DX003 (ip), vehicle: other 100 % of control

CNc1nc(NC)nc(NC)n1
inactive: endpoint: mean survival time, dose: 12.5 mg/kg/injection, schedule: Q01DX009 (ip), vehicle: Klucel (hydroxypropylcellulose) (HPC) 95 % of control | endpoint: mean survival time, dose: 25.0 mg/kg/injection, schedule: Q01DX009 (ip), vehicle: Klucel (hydroxypropylcellulose) (HPC) 97 % of control | endpoint: mean survival time, dose: 50.0 mg/kg/injection, schedule: Q01DX009 (ip), vehicle: Klucel (hydroxypropylcellulose) (HPC) 97 % of control | endpoint: mean survival time, dose: 100.0 mg/kg/injection, schedule: Q01DX009 (ip), vehicle: Klucel (hydroxypropylcellulose) (HPC) 100 % of control | endpoint: mean survival time, dose: 200.0 mg/kg/injection, schedule: Q01DX009 (ip), vehicle: Klucel (hydroxypropylcellulose) (HPC) 103 % of control

CCOC1=NN(c2ccccc2)C(=O)C1
inactive: [4] 97 % of control | [5] 100 % of control | [6] 103 % of control

Cc1ccc(S(=O)(=O)OCC(OS(=O)(=O)c2ccc(C)cc2)C2OC3OC(C)(C)OC3C2OS(=O)(=O)c2ccc(C)cc2)cc1 (centres undefined)
inactive: [1] 103 % of control | [4] 96 % of control | [2] 103 % of control | [5] 87 % of control | [3] 89 % of control | [6] 90 % of control

CS(=O)(=O)c1nc2ccccc2s1
inactive: [1] 103 % of control | [2] 91 % of control

NS(N)(=O)=O
inactive: [10] 105 % of control | [14] 100 % of control | [16] 97 % of control
